# ChEMBL document CHEMBL1155955, “Structure-activity relationship studies of the chromosome segregation inhibitor, Incentrom A” (2008)
# Calls of active or inactive are those of the source. The rule behind the calls is not given here.
# Legend:
# Saccharomyces cerevisiae [1] = experiment: Antiproliferative activity against yeast YPH278 assessed as reduction in cell viability after 24 hrs; assay type: functional
# Saccharomyces cerevisiae [2] = experiment: Inhibition of chromosome segregation in yeast YPH278 at 15 uM; assay type: functional, organism-based
# Saccharomyces cerevisiae [3] = experiment: Inhibition of chromosome segregation in yeast YPH278 at 5 uM; assay type: functional, organism-based
SMILES,MIC (Saccharomyces cerevisiae [1]) [µM],Activity (Saccharomyces cerevisiae [2]),Activity (Saccharomyces cerevisiae [3])
OC(CN1CCN(C/C=C/c2ccccc2)CC1)Cn1ccc2ccccc21 (stereo unspecified),> 45,–,–
CN(C)c1ccc(/C=C/CN2CCN(CCCCn3c4ccccc4c4ccccc43)CC2)cc1,42,–,–
Oc1ccc(CCCN2CCN(CCCCn3c4ccccc4c4ccccc43)CC2)cc1,28,–,–
c1ccc2cc(CN3CCN(CCCCn4c5ccccc5c5ccccc54)CC3)ccc2c1,30,–,–
CC(=O)Nc1ccc2c(c1)c1ccccc1n2CCCCN1CCN(C/C=C/c2ccccc2)CC1,> 45,–,–
CC(=O)OC(CN1CCN(C/C=C/c2ccccc2)CC1)Cn1c2ccccc2c2ccccc21 (stereo unspecified),18,–,–
[N-]=[N+]=NC(CN1CCN(C/C=C/c2ccccc2)CC1)Cn1c2ccccc2c2ccccc21 (stereo unspecified),> 45,–,–
OC(CN1CCN(Cc2ccccc2)CC1)Cn1c2ccccc2c2ccccc21 (stereo unspecified),> 45,–,–
Oc1cccc(/C=C/CN2CCN(CCCCn3c4ccccc4c4ccccc43)CC2)c1,27,–,–
O=c1c2ccccc2n(CCCCN2CCN(C/C=C/c3ccccc3)CC2)c2ccccc12,> 45,–,–
c1ccc(COc2ccc(CCCN3CCN(CCCCn4c5ccccc5c5ccccc54)CC3)cc2)cc1,> 45,–,–
CCCCCCCCOc1ccc(CCCN2CCN(CCCCn3c4ccccc4c4ccccc43)CC2)cc1,> 45,–,–
CC(=O)OC(Cc1ccccc1)CN1CCN(CCCCn2c3ccccc3c3ccccc32)CC1 (stereo unspecified),18,–,–
O=C(CN1CCN(C/C=C/c2ccccc2)CC1)Cn1c2ccccc2c2ccccc21,> 45,–,–
OC(CN1CCN(CCCc2ccccc2)CC1)Cn1c2ccccc2c2ccccc21 (stereo unspecified),20,–,–
C(=C\c1ccccc1)/CN1CCN(CCCCCCCCn2c3ccccc3c3ccccc32)CC1,44,–,–
OC(CN1CCN(C/C=C/c2ccccc2)CC1)Cn1c2ccccc2c2ccccc21 (stereo unspecified),15,Active,–
O[C@@H](CN1CCN(C/C=C/c2ccccc2)CC1)Cn1c2ccccc2c2ccccc21,15,–,–
O=C(OC(Cc1ccccc1)CN1CCN(CCCCn2c3ccccc3c3ccccc32)CC1)c1ccccc1 (stereo unspecified),> 45,–,–
CCCCCCOc1ccc(CCCN2CCN(CCCCn3c4ccccc4c4ccccc43)CC2)cc1,> 45,–,–
OC(CN1CCN(C/C=C/c2ccccc2)CC1)Cn1c2c(c3ccccc31)CCCC2 (stereo unspecified),25,–,–
OC(CN1CCN(C/C=C/c2ccccc2)CC1)CN(c1ccccc1)c1ccccc1 (stereo unspecified),45,–,–
O=C(Nc1ccc2c(c1)c1ccccc1n2CCCCN1CCN(C/C=C/c2ccccc2)CC1)c1ccccc1,> 45,–,–
O=C(OC(CN1CCN(C/C=C/c2ccccc2)CC1)Cn1c2ccccc2c2ccccc21)c1ccccc1 (stereo unspecified),> 45,–,–
Nc1ccc(CCCN2CCN(CCCCn3c4ccccc4c4ccccc43)CC2)cc1,16,–,–

# Continued by falling MIC (Saccharomyces cerevisiae [1]), values first:
MIC (Saccharomyces cerevisiae [1]) [µM],SMILES,Activity (Saccharomyces cerevisiae [2]),Activity (Saccharomyces cerevisiae [3])
15,Nc1ccc(/C=C/CN2CCN(CCCCn3c4ccccc4c4ccccc43)CC2)cc1,–,–
14,O[C@H](CN1CCN(C/C=C/c2ccccc2)CC1)Cn1c2ccccc2c2ccccc21,–,–
12,OC(Cc1ccccc1)CN1CCN(CCCCn2c3ccccc3c3ccccc32)CC1 (stereo unspecified),–,–
12,C(=C\c1ccccc1)/CN1CCN(CCCn2c3ccccc3c3ccccc32)CC1,–,–
12,COc1cccc(/C=C/CN2CCN(CCCCn3c4ccccc4c4ccccc43)CC2)c1,–,–
10,C(=C\c1ccccc1)/CN1CCN(CCCCn2c3c(c4ccccc42)CCCC3)CC1,–,–
9,c1ccc(CCN2CCN(CCCCn3c4ccccc4c4ccccc43)CC2)cc1,–,–
8,COc1ccc(CCCN2CCN(CCCCn3c4ccccc4c4ccccc43)CC2)cc1,–,–
7,c1ccc(C2OC2CN2CCN(CCCCn3c4ccccc4c4ccccc43)CC2)cc1 (stereo unspecified),–,–
7,OC(CN1CCN(C/C=C/c2ccccc2)CC1)CN1c2ccccc2Oc2ccccc21 (stereo unspecified),–,–
7,C(=C\c1ccccc1)/CN1CCN(CCCCCCn2c3ccccc3c3ccccc32)CC1,–,–
6,C(=C\c1ccccc1)/CN1CCN(CCCCCn2c3ccccc3c3ccccc32)CC1,–,–
5,c1ccc2c(c1)c1ccccc1n2CCCCN1CCN(CCCC2CCCCC2)CC1,–,–
5,c1ccc(CCCCN2CCN(CCCCn3c4ccccc4c4ccccc43)CC2)cc1,–,–
5,O=[N+]([O-])c1ccc2c(c1)c1ccccc1n2CCCCN1CCN(C/C=C/c2ccccc2)CC1,–,–
5,C(=C\c1ccccc1)/CN1CCN(CCCCn2c3ccccc3c3ccccc32)CC1,–,Active
5,[N-]=[N+]=Nc1ccc(/C=C/CN2CCN(CCCCn3c4ccccc4c4ccccc43)CC2)cc1,–,Active
4,c1ccc(CCCCCN2CCN(CCCCn3c4ccccc4c4ccccc43)CC2)cc1,–,–
